Test results published in US20220274947A1, “NOVEL HETEROARYL-TRIAZOLE COMPOUNDS AS PESTICIDES” (Bayer Aktiengesellschaft, priority 2019, published 2022).

Assays:
Format in all cases: in vivo
[1] = system: Spodoptera frugiperda; assay: Spodoptera frugiperda spray test; conditions: in Zea mays, 168 h, read-out: activity (mortality)
How it was run: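 Maize leaf sections were sprayed with compound formulated in acetone/DMF and diluted in water containing 1000 ppm emulsifier. Dried leaves were infested with fall armyworm larvae, and percent mortality was scored after 7 days.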

[2] = system: Diabrotica balteata; assay: Diabrotica balteata spray test; conditions: 168 h, wheat seeds, larvae, after 7 days, read-out: activity (efficacy: 100% means all seedlings have grown up like in the untreated, uninfected control); for pest or weed control at 32 µg/disc, 100 g/ha: application rate 100 g/ha (=32 μg/well); for pest or weed control at 160 µg/disc, 500 g/ha: application rate 500 g/ha (=160 μg/well)
How it was run: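 Wheat seedlings, germinated 1 day on agar, were sprayed with compound in acetone/DMF diluted in water containing emulsifier, then infested with 10-20 Diabrotica balteata larvae. After 7 days efficacy in % was scored: 100% means seedlings grew like the untreated, uninfected control; 0% means none grew.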

[3] = system: Rhipicephalus microplus; assay: Rhipicephalus (Boophilus) microplus injection test (BOOPMI Inj); conditions: 168 h, injection into adult engorged female ticks, egg deposition after 7 days, read-out: activity (efficacy: 100% means all eggs are infertile); for pest or weed control at 0.02 mg: application rate 20 μg/tick; for pest or weed control at 0.004 mg: application rate 4 μg/tick
How it was run: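 Five engorged adult female R. microplus ticks injected into the abdomen with 1 μL of compound diluted in DMSO, then kept in a climate chamber. Fertile egg deposition checked after 7 days; eggs without visible fertility held until hatching at about 42 days. Efficacy: 100% = all eggs infertile, 0% = all fertile.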

[4] = system: Rhipicephalus microplus; assay: Rhipicephalus (Boophilus) microplus in-vitro contact test, larval cattle tick, strain Parkhurst (BOOPMI Cont); conditions: application rate 5 μg/cm^2 (=500 g/ha), tick larvae, after 48 hours, read-out: activity (efficacy: 100% means all larvae are dead or moribund)
How it was run: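 Acetone solutions dried onto glass tube walls (900 ppm giving 5 μg/cm^2); 20-50 pyrethroid-resistant Parkhurst larvae added per tube and held 48 h at 27° C., 85% relative humidity. Efficacy scored by negative geotaxis as % dead or moribund larvae.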

[5] = system: Meloidogyne incognita; assay: Meloidogyne incognita test; conditions: application rate 20 ppm, salad seedlings, after 14 days
Procedure: Meloidogyne incognita—Test Solvent: 125.0 parts by weight of acetone
To produce a suitable preparation of active compound, 1 part by weight of active compound is mixed with the stated amount of solvent, and the concentrate is diluted with water to the desired concentration.
Vessels are filled with sand, a solution of the active ingredient, a suspension containing eggs and larvae of the southern root-knot nematode (Meloidogyne incognita) and salad seeds. The salad seeds germinate and the seedlings grow. Galls develop in the roots.
After 14 days the nematicidal activity is determined based on the percentage of gall formation. 100% means no galls were found and 0% means the number of galls found on the roots of the treated plants was equal to that in untreated control plants.

[6] = system: Ctenocephalides felis; assay: Ctenocephalides felis oral test (CTECFE Oral); conditions: 48 h, read-out: activity (mortality)
How it was run: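 About 20 unfed adult cat fleas fed through parafilm on cattle blood containing compound (DMSO concentrate diluted in blood to the desired concentration). Blood held at 37 °C, fleas at room temperature. Mortality (%) scored after 2 days.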

[7] = system: Rhipicephalus sanguineus; assay: Rhipicephalus sanguineus in-vitro contact test, adult brown dog ticks (RHIPSA Cont); conditions: 48 h, after 48 hours, read-out: activity (efficacy: 100% means all ticks are dead or moribund); for pest or weed control at 1 µg/cm2, 100 g/ha: application rate 1 μg/cm^2 (=100 g/ha); for pest or weed control at 5 µg/cm2, 500 g/ha: application rate 5 μg/cm^2 (=500 g/ha)
How it was run: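 Mortality of adult R. sanguineus was judged 48 h after contact with acetone-applied residues on glass tube walls. Ticks that stayed immotile or moved without coordination when heated to 45–50 °C (max 5 min) counted as dead or moribund.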

[8] = system: Aedes aegypti strain MONHEIM; assay: Aedes aegypti test (AEDSAE surface treatment & contact assay); conditions: exposure 30 minutes, 24 hours after contact, read-out: efficacy (mortality); for mortality at 20 mg/m2: surface concentration 20 mg/m^2, glazed tile
How it was run: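 Compound dissolved in acetone (2 mg/ml) with 2000 ppm rapeseed oil methyl ester, pipetted onto glazed tile and dried. Adult mosquitoes exposed on the surface for 30 min; percent mortality scored 24 h after contact.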

[9] = system: Nilaparvata lugens; assay: Nilaparvata lugens spray test; conditions: 96 h, rice plants, after 4 days; for mortality at 100 g/ha: application rate 100 g/ha; for mortality at 500 g/ha: application rate 500 g/ha
Procedure: Nilaparvata lugens—Spray Test Solvent: 78.0 parts by weight of acetone • • 1.5 parts by weight of dimethylformamide Emulsifier: alkylarylpolyglycol ether
To produce a suitable preparation of active compound, 1 part by weight of active compound is mixed with the stated amount of solvents and is diluted with water, containing an emulsifier concentration of 1000 ppm, to the desired concentration. Further test concentrations are prepared by dilution with emulsifier containing water.
Rice plants (Oryza sativa) are sprayed with a preparation of the active ingredient of the desired concentration and the plants are infested with the brown planthopper (Nilaparvata lugens).
After 4 days mortality in % is determined. 100% means all planthoppers have been killed and 0% means none of the planthoppers have been killed.

[10] = system: Myzus persicae; assay: Myzus persicae oral test; conditions: 120 h, read-out: activity (mortality)
How it was run: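 Percent mortality was recorded at day 5, where 0% means no aphids killed. Compound prepared from an acetone concentrate diluted in water and combined with IPL41 medium containing sugar was offered to mixed-stage green peach aphids, which sucked it through a parafilm seal.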

[11] = system: Musca domestica strain WHO—N; assay: Musca domestica test (MUSCDO surface treatment & contact assay); conditions: surface concentration 20 mg/m^2, glazed tile, exposure 30 minutes, 24 hours after contact, read-out: efficacy (mortality)
How it was run: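 Compound dissolved in acetone (2 mg/ml) with 2000 ppm rapeseed oil methyl ester and pipetted onto glazed tile; after acetone evaporation, adult flies exposed to dried surface for 30 minutes. Mortality (%) scored 24 hours after contact.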

[12] = system: Nezara viridula; assay: Nezara viridula spray test; conditions: in Hordeum vulgare, 96 h, barley plants, larvae, after 4 days; for mortality at 500 g/ha: application rate 500 g/ha
How it was run: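 Barley plants infested with N. viridula larvae were sprayed with compound in acetone/DMF diluted with water containing 1000 ppm alkylarylpolyglycol ether emulsifier. Mortality (%) was scored after 4 days; 100% means all bugs killed, 0% none.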

[13] = system: Ctenocephalides felis; assay: Ctenocephalides felis in-vitro contact test, adult cat flea (CTECFE Cont); conditions: application rate 5 μg/cm^2 (=500 g/ha), adult cat fleas, after 48 hours, read-out: activity (efficacy: 100% means all fleas are dead or moribund)
How it was run: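 Acetone solutions coated on glass tube inner walls (900 ppm giving 5 μg/cm^2), then 5-10 adult fleas added and held 48 h at room temperature. Fleas unable to escape a 45-50° C. heating plate within 5 min scored dead or moribund; efficacy = % dead/moribund.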

[14] = system: Myzus persicae; assay: Myzus persicae spray test; conditions: in Brassica rapa, foliar, 120 h, read-out: activity (mortality), application rate 100 g/ha, spray, Chinese cabbage leaf disks, after 5 days
How it was run: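 Compound in acetone/DMF solvent diluted in water with 1000 ppm alkylarylpolyglycol ether emulsifier, sprayed onto Chinese cabbage leaf disks infested with all instars of Myzus persicae. Mortality (%) scored after 5 days.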

Row | Structure (SMILES) | mortality at 100 g/ha [1] [%] | mortality at 500 g/ha [1] [%] | pest or weed control at 32 µg/disc, 100 g/ha [2] [%] | pest or weed control at 160 µg/disc, 500 g/ha [2] [%] | pest or weed control at 0.02 mg [3] [%] | pest or weed control at 5 µg/cm2 [4] [%] | nematicidal activity (100% means no galls were found) [5] [%] | mortality at 100 ppm [6] [%] | pest or weed control at 0.004 mg [3] [%] | pest or weed control at 1 µg/cm2, 100 g/ha [7] [%] | pest or weed control at 5 µg/cm2, 500 g/ha [7] [%] | mortality at 4 ppm [10] [%] | further results
1 | CCOc1nc([C@H](C)NC(=O)c2cc(Cl)cc(C(F)(F)F)c2)n(-c2ccc(C#N)cn2)n1 [I-12] | 100 | 100 | 100 | 100 | 100 | 100 | 90 | 90 |  |  |  |  | 
2 | CCOc1nc([C@H](C)NC(=O)c2cc(C(F)(F)F)cc(C(F)(F)F)c2)n(-c2ccc(C#N)cn2)n1 [I-13] | 100 | 100 | 100 | 100 | 100 | 100 | 90 | 100 | 100 |  |  |  | 
3 | CCOc1nc([C@H](C)NC(=O)c2cc(Cl)cc(Cl)c2)n(-c2ccc(C#N)cn2)n1 [I-14] | 83 | 100 | 100 | 100 | 100 | 100 | 100 |  | 100 |  |  |  | 
4 | CC(C)c1nc([C@H](C)NC(=O)c2cc(Cl)cc(Br)c2)n(-c2ccc(C#N)cn2)n1 [I-19] | 100 |  | 100 |  | 100 | 100 | 90 | 100 | 100 | 100 | 100 |  | mortality at 20 mg/m2 [8]: 80 to 100%
5 | CC(C)c1nc([C@H](C)NC(=O)c2cccc(Br)n2)n(-c2ccc(C#N)cn2)n1 [I-23] |  |  |  |  | 100 |  | 90 |  | 80 |  | 80 |  | 
6 | C[C@H](NC(=O)c1cc(Cl)cc(C(F)(F)C(F)(F)F)c1)c1nc(C2CC2)nn1-c1ccc(C#N)cn1 [I-43] | 100 |  | 100 |  |  | 100 |  | 100 | 100 |  |  |  | mortality at 100 g/ha [9]: 90%
7 | C[C@H](NC(=O)c1cc(Cl)cc(C(F)(F)F)c1)c1ncnn1-c1cc([N+](=O)[O-])ccn1 [II-24] |  | 100 |  | 80 | 100 | 100 | 100 |  | 80 | 80 |  |  | 
8 | C[C@H](NC(=O)c1cc(Cl)cc(OC(F)(F)F)c1)c1ncnn1-c1cc(NC(=O)C2CC2)ccn1 [II-25] | 100 | 100 |  | 80 | 100 | 100 | 90 |  | 100 |  | 80 | 100 | mortality at 4 mg/m2 ([8]; surface concentration 4 mg/m^2, glazed tile): 80 to 100%; mortality at 20 mg/m2 [8]: 80 to 100%; mortality at 20 mg/m2 [11]: 80 to 100%
9 | C[C@H](NC(=O)c1cc(C(F)(F)F)cc(C(F)(F)F)c1)c1ncnn1-c1ccc(S(C)(=O)=O)cn1 [II-44] | 100 | 100 | 100 | 100 | 100 | 100 |  |  | 100 | 100 | 100 | 100 | mortality at 500 g/ha [9]: 90%; mortality at 500 g/ha [12]: 100%
10 | C[C@H](NC(=O)c1cc(C(F)(F)F)cc(C(F)(F)F)c1)c1ncnn1-c1ccc(C(=O)N(C)CC(F)(F)F)cn1 [II-74] | 100 | 100 | 100 | 100 | 100 | 100 |  |  | 100 | 100 | 100 | 100 | mortality at 500 g/ha [9]: 90%; pest or weed control at 5 µg/cm2 [13]: 100%; mortality at 500 g/ha [12]: 100%
11 | Cc1nc([C@H](C)NC(=O)c2cc(C(F)(F)F)cc(C(F)(F)F)c2)n(-c2ccc(C(=O)N(C)CCN(C)C)cn2)n1 [II-95] |  |  |  |  |  | 90 |  | 100 | 80 | 100 |  | 90 | mortality at 100 g/ha [9]: 90%; mortality at 100 g/ha ([12]; application rate 100 g/ha): 100%
12 | Cc1nc([C@H](C)NC(=O)c2cc(Cl)cc(C(F)(F)F)c2)n(-c2cnc(C#N)cn2)n1 [II-104] | 100 |  |  |  |  | 100 |  | 100 | 100 | 100 | 100 |  | mortality at 100 g/ha [9]: 90%; pest or weed control at 5 µg/cm2 [13]: 100%; mortality at 100 g/ha [14]: 100%
